Experimental data reported in paper PMC8063472, “Pharmacokinetics of five phthalides in volatile oil of Ligusticum sinense Oliv.cv. Chaxiong, and comparison study on physicochemistry and pharmacokinetics after being formulated into solid dispersion and inclusion compound” (BMC Complementary Medicine and Therapies, 2021).
Where two headings read alike, the source gives them in different places.

Assays:
[1] = Pharmacokinetic study in rats (plasma LC-MS/MS) after iv or oral VOC, oral VOC-P188 or oral VOC-β-CD; type: in vivo, Sprague Dawley rats; conditions: for AUC(0-t) / MRT last / Tmax / half-life / Cmax / bioavailability: male, Sprague-Dawley, rat, plasma; for MRT last: read-out: MRT0-t; for half-life: read-out: t1/2β (converted)
Description: The intravenous injection solution was prepared by dissolving 0.15 g of VOC in 25 ml water containing 3 ml 10% Tween-80 as solubilizer. The oral solution was prepared by dissolving 0.35 g of VOC in 25 ml normal saline containing 3 ml 10% Tween-80 as solubilizer. The VOC-P188 solution was prepared by mixing VOC-P188 5 g in 25 ml water with magnetic stirring apparatus. The VOC-β-CD solution was prepared by mixing VOC-β-CD 3.5 g in 25 ml water with magnetic stirring apparatus.
Twenty-four male SD rats (220 ~ 250 g) were randomly divided into four groups, 6 in each group. After fasting for 12 h before administration, the rats in group 1 were given VOC by tail vein injection at a dose of 30 mg/Kg, the rats at second group were oral administration of VOC solution, the dosage was 120 mg/Kg based on the mass of VOC. The rats at groups 3 and 4 were given VOC-P188 and VOC-β-CD, respectively.
Blood samples (0.3 ml) were collected from the eyes at 0.08, 0.17, 0.33, 0.5, 1, 1.5, 2, 4, 6, 8, 12 and 24 h after administration, and they were immediately transferred into a heparinized Eppendorf (EP) tube. The blood samples were then centrifuged at 13,000 r/min for 10 min. The plasma samples were stored at − 80 °C for later analysis.
The thawed plasma sample (0.1 ml) was transferred to another EP tube and 20 μl of DL, 50 μl of 2% formic acid and 500 μl of methanol were added. The mixture was vortexed for 2 min, and centrifuged at 13000 r/min for 10 min. The supernatant was transferred into a clean EP tube, and evaporated to dryness under a stream of nitrogen at 40 °C. The residue was dissolved in 100 μl of methanol. The supernatant was injected into the HPLC system.
An HPLC system consisting of a solvent-delivery system LC-30 AD, an autosampler SIL-30 AC, a column oven CTO-30 AC, a solvent degasser DGU-20A3, and a controller CBM-20A from […] was used in the study. Separation was conducted using a Shim-pack GIST C18-AQ HP column (2.1 mm × 100 mm, 3 μm). The column oven was maintained at 35 °C. The mobile phase was 0.1% formic acid in water as mobile phase A and acetonitrile as mobile phase B. The linear gradient elution program was set according to preliminary tests: 45–60% B, 0–2 min; 60–65% B, 2–6 min; 65–95% B, 6–7 min; 95–45% B, 7–9 min and 45% B, 9–10 min, with the flow rate kept at 0.3 ml/min. The injection volume was set at 2 μl.
The MS analysis was performed on a 4500 QTRAP™ system from Applied Biosystems (AB Sciex) equipped with Turbo V sources and Turbo Ion Spray™ (TIS) interface. Electrospray ionization was performed in positive mode. Ion source: electrospray ion source (ESI source); detection method: multiple reaction monitoring (MRM); ion source temperature: 500 °C; desolvent gas temperature: 550 °C; desolvent gas flow rate: 800 l/h. The detection ion pair, retention time, declustering voltage and collision energy of each index component and internal standard were shown in Table 2.
The plasma SA, NBP, NOL, ZL and BP concentrations were evaluated using the equation from the standard curves that were run with each batch of samples. The plasma concentration-time data were analyzed with the Drug and Statistics 2.0 software package to determine the pharmacokinetic parameters. The observed Cmax value was obtained from the observed data and the observed AUC0 → t value was calculated using the trapezoidal rule. The absolute bioavailability of VOC and the relative bioavailability of VOC-P188 and VOC-β-CD were calculated, the formula for calculating absolute bioavailability (F1) and relative bioavailability (F2): F1=AUCpo×Div/AUCiv×Dpo×100% […]
Where AUC is the area under the temporal curve of blood drug concentration (μg/l*h), D is administration dosage (mg/kg); the subscripts iv and po are injection and oral administration, respectively; the subscript R is reference drug (VOC); the subscript T is solid dispersion or inclusion compound.

[2] = Stability test of VOC-P188 and VOC-β-CD (temperature, illumination); type: physicochemical
[3] = VOC iv 30 mg/kg, rat plasma, n = 6
[4] = VOC po 120 mg/kg, rat plasma, n = 6
[5] = VOC-P188 solid dispersion po vs VOC po, rats
[6] = VOC-P188 solid dispersion po, rat plasma, n = 6
[7] = VOC-β-CD inclusion compound po vs VOC po, rats
[8] = VOC-β-CD inclusion compound po, rat plasma, n = 6
[9] = iv, 30 mg/kg, VOC iv 30 mg/kg, rat plasma, n = 6
[10] = iv, 30 mg/kg, VOC iv 30 mg/kg, rat plasma, n = 6, read-out: Tmax
[11] = iv, 30 mg/kg, VOC iv (tail vein) 30 mg/kg, rat plasma, n = 6
[12] = po, 120 mg/kg, VOC po 120 mg/kg, rat plasma, n = 6
[13] = po, 120 mg/kg, VOC po 120 mg/kg, rat plasma, n = 6, read-out: Tmax
[14] = po, 120 mg/kg, VOC po vs VOC iv, rats, read-out: F1 (absolute bioavailability)
[15] = po, VOC-P188 and VOC-β-CD po, rats, read-out: bioavailability in the two preparations
[16] = po, VOC-P188 solid dispersion po, rat plasma, n = 6
[17] = po, VOC-P188 solid dispersion po, rat plasma, n = 6, read-out: Tmax
[18] = po, VOC-β-CD inclusion compound po, rat plasma, n = 6
[19] = po, VOC-β-CD inclusion compound po, rat plasma, n = 6, read-out: Tmax

Row | Compound | t1/2α [1, 3] [h] | t1/2α [1, 4] [h] | F2 (relative bioavailability) [1, 5] [%] | t1/2α [1, 6] | F2 (relative bioavailability) [1, 7] [%] | t1/2α [1, 8] | AUC(0-t) [1, 9] [µg·h/mL] | MRT last [1, 9] [min] | Tmax [1, 10] [min] | half-life [1, 9] [min] | Cmax [1, 11] [µg/mL] | AUC(0-t) [1, 12] [µg·h/mL] | Cmax [1, 12] [µg/mL] | MRT last [1, 12] [min] | Tmax [1, 13] [min] | half-life [1, 12] [min] | bioavailability [1, 14] [%] | bioavailability [1, 15] [%] | AUC(0-t) [1, 16] [µg·h/mL] | Cmax [1, 16] [µg/mL] | also measured
1 | CCCC[C@@H]1OC(=O)c2ccccc21 [NBP, N-butylphthalide, reference compound] | 0.06 ± 0.04 | 0.26 ± 0.10 | 197.67 | 2.82 ± 1.55^** h | 198.39 | 3.95 ± 1.96^** h | 0.0546 ± 0.0165 | 32.4 ± 13.2 | 4.98 | 15.6 ± 9 | 0.196 ± 0.0645 | 0.0361 ± 0.00758 | 0.0259 ± 0.0083 | 162 ± 28.2 | 28.2 ± 4.2 | 39 ± 44.4 | < 25 | < 50 | 0.0727 ± 0.0098 | 0.0235 ± 0.00159 | Tmax ([1]; po, 120 mg/kg, after oral administration of VOC, rats, read-out: Tmax (time of peak concentration)): < 30 min; MRT last [1, 16]: 244 ± 27.6 min; Tmax [1, 17]: 19.2 ± 12 min; half-life [1, 16]: 188 ± 60.6 min; AUC(0-t) [1, 18]: 0.0761 ± 0.0246 µg·h/mL; Cmax [1, 18]: 0.0224 ± 0.00556 µg/mL; MRT last [1, 18]: 317 ± 62.4 min; Tmax [1, 19]: 49.8 ± 15.6 min; half-life [1, 18]: 263 ± 109 min
2 | CCCC[C@@H]1OC(=O)C2=CCCC[C@H]21 [NOL, Neocnidilide] | 0.04 ± 0.04 | 0.46 ± 0.67 | 258.18 | 4.21 ± 4.29^* h | 218.01 | 3.21 ± 2.44 h | 0.505 ± 0.152 | 47.4 ± 10.2 | 4.98 | 18 ± 6.6 | 1.38 ± 0.335 | 0.442 ± 0.0452 | 0.223 ± 0.0713 | 205 ± 34.2 | 10.8 ± 7.2 | 186 ± 131 | < 25 | < 50 | 1.14 ± 0.0639 | 0.244 ± 0.131 | MRT last [1, 16]: 457 ± 34.2 min; Tmax [1, 17]: 25.2 ± 27 min; half-life [1, 16]: 530 ± 110 min; AUC(0-t) [1, 18]: 0.945 ± 0.085 µg·h/mL; Cmax [1, 18]: 0.134 ± 0.0243 µg/mL; MRT last [1, 18]: 490 ± 33 min; Tmax [1, 19]: 40.2 ± 15.6 min; half-life [1, 18]: 586 ± 163 min
3 | CCCCC1OC(=O)C2=C1CCC=C2 (stereo not drawn) [SA, senkyunolide A] | 0.09 ± 0.05 | 1.31 ± 1.58 | 185.82 | 1.50 ± 1.59 h | 138.69 | 2.34 ± 1.24 h | 1.37 ± 0.315 | 43.2 ± 4.8 | 4.98 | 46.8 ± 39.6 | 3.43 ± 0.557 | 1.26 ± 0.274 | 0.631 ± 0.31 | 251 ± 29.4 | 11.4 ± 6 | 227 ± 84 | < 25 | < 50 | 2.36 ± 0.351 | 0.701 ± 0.349 | MRT last [1, 16]: 387 ± 57.6 min; Tmax [1, 17]: 12 ± 9.6 min; half-life [1, 16]: 434 ± 154 min; AUC(0-t) [1, 18]: 1.83 ± 0.532 µg·h/mL; Cmax [1, 18]: 0.399 ± 0.0683 µg/mL; MRT last [1, 18]: 373 ± 90.6 min; Tmax [1, 19]: 30 ± 15.6 min; half-life [1, 18]: 179 ± 34.2 min; content decreased by ([2]; in VOC-P188, 60 °C for 10 days): 15.8%; content decreased by ([2]; in VOC-β-CD, 60 °C for 10 days): 9.0%
